Data from paper PMC6382835, “A critical evaluation of TRPA1-mediated locomotor behavior in zebrafish as a screening tool for novel anti-nociceptive drug discovery” (Scientific Reports, 2019).
Where two headings read alike, the source gives them in different places.

Target: T1, zebrafish TRPA1a (zTRPA1a) (Danio rerio, UniProt Q5UM15)
T1 sequence (Q5UM15 1-1115): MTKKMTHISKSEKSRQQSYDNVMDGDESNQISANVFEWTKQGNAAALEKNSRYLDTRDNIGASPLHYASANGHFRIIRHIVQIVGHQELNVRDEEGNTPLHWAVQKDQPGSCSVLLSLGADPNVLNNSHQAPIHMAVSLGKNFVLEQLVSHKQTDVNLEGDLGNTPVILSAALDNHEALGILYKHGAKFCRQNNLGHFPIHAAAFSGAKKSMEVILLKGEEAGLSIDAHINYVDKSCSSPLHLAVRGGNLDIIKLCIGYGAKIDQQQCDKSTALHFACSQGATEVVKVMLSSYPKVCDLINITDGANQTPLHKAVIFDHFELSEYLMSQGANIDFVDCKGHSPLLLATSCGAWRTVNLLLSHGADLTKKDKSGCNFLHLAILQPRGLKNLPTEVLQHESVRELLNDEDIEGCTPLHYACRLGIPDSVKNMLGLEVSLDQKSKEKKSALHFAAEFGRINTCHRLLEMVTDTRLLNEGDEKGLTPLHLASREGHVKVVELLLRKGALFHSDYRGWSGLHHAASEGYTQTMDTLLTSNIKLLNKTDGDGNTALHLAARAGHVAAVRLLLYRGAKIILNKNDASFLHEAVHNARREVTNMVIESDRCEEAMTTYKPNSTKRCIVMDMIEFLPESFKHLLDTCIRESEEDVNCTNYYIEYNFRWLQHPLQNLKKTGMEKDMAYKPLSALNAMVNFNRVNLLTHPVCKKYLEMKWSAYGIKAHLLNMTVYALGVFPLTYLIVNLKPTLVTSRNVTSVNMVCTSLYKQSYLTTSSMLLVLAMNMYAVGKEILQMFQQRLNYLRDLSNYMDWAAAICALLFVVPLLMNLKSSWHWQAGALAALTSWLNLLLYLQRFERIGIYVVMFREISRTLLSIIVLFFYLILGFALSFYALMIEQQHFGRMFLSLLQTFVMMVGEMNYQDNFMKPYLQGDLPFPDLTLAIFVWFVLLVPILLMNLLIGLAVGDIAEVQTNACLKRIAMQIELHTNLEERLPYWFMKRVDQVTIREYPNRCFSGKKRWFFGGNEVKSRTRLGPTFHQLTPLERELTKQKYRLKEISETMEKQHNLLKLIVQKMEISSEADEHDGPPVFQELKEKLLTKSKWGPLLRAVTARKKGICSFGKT
Assay: FLIPR calcium signaling assay in zTRPA1a-transfected HEK293 cells
Format: cell-based
Description: The cells were maintained in a 37 °C incubator with consistent 5% CO2. […] Experiments were carried out with the approval of the Institutional Biohazard Committee (#13-013-16).
Twenty-five µl calcium sensitive Fluorescent Imaging Plate Reader (FLIPR) Calcium 6 assay dye (#R8190, Molecular Devices, CA, USA) was added to each well of a 384-well plate containing HEK293 cells transiently expressing mTRPA1, zTRPA1a, and zTRPA1b, respectively. The cells were incubated for an hour prior to the recording of intracellular calcium levels in a FlexStation3 Multi-Mode Microplate Reader (#R8190, Molecular Devices) as previously described. […] During the assay, the cells were challenged by a 5x ASP7663 solution or 1% DMSO solution at the 20 seconds time point, and both solutions were diluted in calcium buffer. Relative fluorescence units (RFU) were measured for 120 seconds period by the Flexstation. […] For each specific antagonist concentration we plotted Log(dose ratio-1) against the antagonist concentration in a Schild plot. The dose ratio (A’/A) equals the EC50 of the agonist (ASP7665) in the presence of a concentration of the antagonist (A’) divided by the EC50 of the agonist in the absence of antagonist (A). The x-intercept of the Schild plot was used to identify the antagonist-receptor affinity (pA2).
All data are presented as means ± standard error of the mean (SEM). For our in vitro statistical analysis, AUC of calcium influx (RFU) was measured to plot dose-response curves, which were further analyzed by nonlinear regression analysis. Mean RFU of the first 10 seconds was used as a baseline of the AUC. EC50 values of the dose-response curves were further used to plot Schild curves, and the curves were analyzed with linear regression analysis. For the mice von Frey test, mechanical thresholds were analyzed with two-way ANOVA followed by a Bonferonni test for multiple comparison analysis. For the zebrafish behavior test, the data from the first five seconds following drug administration were excluded, as zebrafish displacement during that period was highly influenced by liquid dispensing. AUC of all curves were measured and analyzed by one-way ANOVA. The post-hoc analysis was conducted with the Tukey’s or Dunnett’s multiple comparisons unless it stated otherwise. […] For our time-course average displacement graph, we used 2nd degree polynomial smoothing for a better representation; however, we used data before smoothing for all statistical analysis and quantification. All in vitro and in vivo data were evaluated using GraphPad Prism 7 (GraphPad Software, La Jolla, CA) unless it stated otherwise.

[1] = agonist calcium influx, zTRPA1a-transfected HEK293, read-out: EC50 (potency in µM)

CC(C)CN1C(=O)/C(=C/C(=O)O)c2cccc(F)c21 [ASP7663]
pEC50 (AITC given as EC50) (agonist calcium influx, AUC of RFU, zTRPA1a-transfected HEK293): 3.9 ± 0.18
EC50 [1]: 118 µM

CC(C)c1ccc(NC(=O)Cn2cnc3c2c(=O)n(C)c(=O)n3C)cc1 [HC-030031]
calcium influx by antagonist alone (316 µM, zTRPA1a-transfected cells): could produce an influx of intracellular calcium
pEC50 (weak agonist activity) (HC030031 alone, zTRPA1a-transfected HEK293, Supplemental Fig. 6): 2.85 ± 0.19
pA2 expressed in µM (Schild plot against ASP7663-mediated calcium influx, zTRPA1a): 26.8 µM
pA2 (Schild plot against ASP7663-mediated calcium influx, zTRPA1a, only two antagonist doses): 4.6 ± 0.2
Schild slope (zTRPA1a, n = 3): 0.84 ± 0.22

C=CCN=C=S [AITC, allyl isothiocyanate]
EC50 (agonist calcium influx, AUC of RFU, zTRPA1a-transfected HEK293, read-out: pEC50 (AITC given as EC50) (converted)): 25.1 µM
EC50 [1]: 26.6 µM
